Here are results for eight compounds from article PMC8087116 (European journal of pharmaceutical sciences : official …, 2017).

Each structure is given as a SMILES string.

The subject of one series is NCI-H23. Put plainly: NCI-60 screening, NSCL NCI-H23. The series is classed as cell-based, human.
For series [1], the system named is NCI-60 human tumor cell lines. As to conditions: for Inhibition against one or more cell lines: single dose 10 μM.
Another series has as its system HOP-62. Put plainly: NCI-60 screening, NSCL HOP-62. The series is classed as cell-based, human.
For a further series, the system named is CCRF-CEM. Put plainly: NCI-60 screening, leukemia CCRF-CEM. The series is classed as cell-based, human.
Another series deals with MDA-MB-468. Put plainly: NCI-60 screening, breast MDA-MB-468. The series is classed as cell-based, human.
For another series, the system named is RPMI-8226. Put plainly: NCI-60 screening, leukemia RPMI-8226. The series is classed as cell-based, human.
The subject of the next series is HL-60-TB. Kind of series: NCI-60 screening, leukemia HL-60-TB. The series is classed as cell-based, human.
The next series has as its system PC-3. Kind of series: NCI-60 screening, prostate PC-3. It counts as cell-based, human.
Another series concerns HOP-92. Kind of series: NCI-60 screening, NSCL HOP-92. The series is classed as cell-based, human.
The test system of the next series is MOLT-4. Put plainly: NCI-60 screening, leukemia MOLT-4. The series is classed as cell-based, human.
In a further series the test system is LOX IMVI. Kind of series: NCI-60 dose-response, melanoma LOX IMVI. It counts as cell-based, human. Particulars: LOX IMVI melanoma cell line, five-concentration dose-response.
Another series has as its system SW-620. Put plainly: NCI-60 dose-response, colon SW-620. It counts as cell-based, human. Particulars: SW-620 colon cancer cell line, five-concentration dose-response.
The next series relates to SR cell line. Put plainly: NCI-60 dose-response, leukemia SR. It counts as cell-based, human. Particulars: five-concentration dose-response.
In another series the test system is MDA-MB-231/ATCC. Put plainly: NCI-60 dose-response, breast MDA-MB-231/ATCC. Particulars: MDA-MB-231/ATCC breast cancer cell line, five-concentration dose-response. The series is classed as cell-based, human.
A further series has as its system MALME-3 M. Kind of series: NCI-60 dose-response, melanoma MALME-3 M. The series is classed as cell-based, human. Particulars: MALME-3 M melanoma cell line, five-concentration dose-response.
The subject of the next series is COLO-205. Kind of series: NCI-60 dose-response, colon COLO-205. The series is classed as cell-based, human. As to conditions: COLO-205 colon cancer cell line, five-concentration dose-response.
The subject of the next series is SK-MEL-5. Put plainly: NCI-60 dose-response, melanoma SK-MEL-5. The series is classed as cell-based, human. Particulars: SK-MEL-5 melanoma cell line, five-concentration dose-response.
The test system of another series is M14. Kind of series: NCI-60 dose-response, melanoma M14. It counts as cell-based, human. As to conditions: M14 melanoma cell line, five-concentration dose-response.

For the compound `CC(C)[C@@H](NS(=O)(=O)N(c1cccc(F)c1)C1CCN(Cc2ccc(O)cc2)CC1)C(=O)O` [Compound 19], the “Inhibition of sensitive tumor cell lines at 10 μM conc.” value (“Inhibition … at 10 μM conc.” below) was found to be 58% in the series with NCI-H23 and 88% in the series on HOP-62. For the same compound, the “Inhibition against one or more cell lines” value in series [1] is more than 50%.
Take `O=S(=O)(c1ccc(Br)cc1)N(c1cccc(F)c1)C1CCN(Cc2ccc(F)cc2)CC1` [Compound 49]: the “Inhibition … at 10 μM conc.” value in the series with CCRF-CEM (10 μM, Leukemia CCRF-CEM) came out at 51%; in the series with MDA-MB-468 (10 μM, Breast MDA-MB-468), 53%; in the series on RPMI-8226, 65%. In [1], the “Inhibition against one or more cell lines” value was more than 50%.
As to `COC(=O)[C@@H](OC(=O)NS(=O)(=O)N(c1ccc(F)cc1)C1CCN(Cc2ccc(F)cc2)CC1)C(C)C` [Compound 39], in [1], the “Inhibition against one or more cell lines” value is reported as more than 50%.
On to `COC(=O)[C@H](NS(=O)(=O)N(c1cccc(F)c1)C1CCN(Cc2ccc(F)cc2)CC1)C(C)C` [Compound 18], for which the “Inhibition … at 10 μM conc.” value in the series on HL-60-TB was “Leukemia: HL-60-TB (56%)”. In addition, in [1], the “Inhibition against one or more cell lines” value was more than 50%.
As to `COC(=O)[C@@H](NS(=O)(=O)N(c1ccc(F)cc1)C1CCN(C(=O)c2ccc(F)cc2)CC1)C(C)C` [Compound 36], in the series on HL-60-TB, the “Inhibition … at 10 μM conc.” value was “Leukemia: HL-60-TB (57%)”. Besides, the “Inhibition against one or more cell lines” value in [1] was more than 50%.
With `COC(=O)[C@@H](CC(C)C)NS(=O)(=O)N(c1cccc(F)c1)C1CCN(Cc2ccc(C(F)(F)F)cc2)CC1` [Compound 25], the “Inhibition … at 10 μM conc.” value in the series with PC-3 is 50%; in the series with HOP-92, 60%; in the series on MOLT-4, 56%. Also, in series [1], the “Inhibition against one or more cell lines” value is more than 50%.
With `COC(=O)[C@H](NS(=O)(=O)N(c1ccc(F)cc1)C1CCN(Cc2ccc(F)cc2)CC1)C(C)C` [Compound 37], the “Inhibition … at 10 μM conc.” value in the series on HL-60-TB is on record as “Leukemia: HL-60-TB (60%)”. In addition, the “Inhibition against one or more cell lines” value in [1] is more than 50%.
Consider `COC(=O)[C@@H](C)CNS(=O)(=O)N(c1cc(C(F)(F)F)cc(C(F)(F)F)c1)C1CCN(Cc2ccc(F)cc2)CC1` [Compound 26], for which the GI50 – broadly, the concentration that inhibits growth by half – in the series on CCRF-CEM (CCRF-CEM leukemia cell line, five-concentration dose-response) amounted to 12.8 µM; in the series with LOX IMVI, 8.1 µM; in the series on MDA-MB-468 (MDA-MB-468 breast cancer cell line, five-concentration dose-response), 3.25 µM; in the series with SW-620, 11.1 µM; with SR cell line it was 3.18 µM; with MDA-MB-231/ATCC, 12.7 µM. In addition, the GI50 with MALME-3 M is 6.89 µM; in series [1] (all remaining subpanel cell lines of NCI-60) it was not above 21 µM; in the series with COLO-205, 1.88 µM; in the series on SK-MEL-5, 3.19 µM; in the series with M14, 3.75 µM. Further, the “Cytotoxicity as indicated by LC50 values, words” value in series [1] was “not cytotoxic for most of the cell lines”. The “TGI (total growth inhibition, cytostatic activity), words” value in [1] (dose-response, NCI-60 panel) is listed as “total growth inhibition of most of the cell lines at moderate concentrations”.
